Consider 1 molecule from PMC12525602, “Identification of Selective α-Glucosidase Inhibitors via Virtual Screening with Machine Learning” (Molecules, 2025).

In assay [1] the target is T1, α-glucosidase (Saccharomyces cerevisiae, UniProt P53341).
T1 construct: purchased Sigma-Aldrich Co. (St. Louis, MI, USA)
The experiment in a line: biochemical. It is filed as biochemical. The procedure:
To further investigate the inhibition kinetics of the candidate compounds, α-glucosidase activity was determined at different substrate concentrations. The Lineweaver-Burk expression method in Equation (1) was used to test the reaction of a series of compounds with the substrate pNαGP, and the values of maximum velocity (Vmax) and Michaelis-Menten constant (Km) were calculated.(1) 1/v=Km/Vmax1/[S]+1/Vmax where Vmax and Km are the maximum velocity of the enzyme and the Michaelis-Menten constant in the absence of inhibitor, respectively. [S] is the concentration of substrate and inhibitor.(2) Slope=Km/Vmax+Km/Vmax·KiI where v is the initial reaction rate, Vmax is the maximum initial reaction rate, [I] is the concentration of […], and Km is the Michaelis-Menten constant.

The target of assay [2] is T1, α-glucosidase. The experiment in a line: Fluorescence quenching experiment (Stern-Volmer). It is filed as binding. The settings on record: for Kq (bimolecular quenching constant): given as number×10 with exponent 12. The procedure:
The fluorescence quenching experiment was modified somewhat based on previous studies. Fluorescence was determined by titrating α-glucosidase (1.0 mL, 2 U/mL) with different concentrations of inhibited solutions (1.0 mL, 0–200 mM) and left to equilibrate for 5 min. […] Fluorescence burst analysis was performed based on the Stern-Volmer (3) equation.(3) F0/F=1+Kqτ0Q=1+KsvQ
F and F0 are the fluorescence intensities with and without inhibitor, respectively, Ksv is the Stern-Volmer bursting constant, Kq is the bimolecular bursting constant, and [Q] is the concentration of inhibitor.
When the bursting mode conforms to static bursting, the binding constant Ka and the number of binding sites for each enzyme can be calculated from Equation (4).(4) logF0−F/F=logKa+nlogQ
Ka is the binding constant and n is the number of binding sites.
The thermodynamic parameters ∆H, ∆S, and ∆G denote the change in heat, entropy, and free energy, respectively.

The target of assay [3] is T1, α-glucosidase. Description: Synchronous fluorescence spectroscopy (RSQF). It is filed as binding. The method, then:
Changes in the microenvironment of tyrosine (Tyr) and tryptophan (Trp) residue fluorophores were detected simultaneously. The excitation and emission wavelength intervals were set to 15 nm and 60 nm, respectively, and the synchronized fluorescence spectra from 260 to 320 nm were determined. The synchronized fluorescence burst ratio (RSFQ) was calculated as follows:(7) RSQF=1−F/F0

Another assay concerns C57BL/6J mice. Description: In vivo starch digestion inhibition experiment (postprandial blood glucose). The following applies: normal mice, 10 mg/kg by gavage, 2 g/kg starch, 0-120 min; p < 0.001 versus controls. An excerpt: After the in vitro validation, in order to further characterize the effect of the inhibitor on postprandial glycemic control, we performed in vivo characterization by gavage in mice. Eight-week-old male C57BL/6J mice (purchased from Beijing Huafukang Laboratory Animals, Beijing, China) were used for the experiments. The animal experimental procedures were approved by the Ethics Committee on Laboratory Animal Management and Welfare of Beijing Huafuqian Times Technology Co. Ltd. (Ethical Review Approval No. HYSD2023-04), and local and national ethical guidelines were strictly observed. All mice were placed in a controlled environment with a temperature of 25 °C, relative humidity of 60%, and a light/dark cycle of 12/12 h. Following overnight fasting, gastric intubation was performed on mice in the control group, acarbose group, […] group, […] group, […] group, and […] group. The control group received saline infusion to eliminate confounding factors during administration. […] The remaining groups each received a corresponding concentration (10 mg/kg) of the test compound dissolved in saline solution to evaluate inhibitor efficacy. 2 g/kg of starch was given after 5 min, and the […] at 0 min, 10 min, 20 min, 30 min, 40 min, 60 min, 90 min and 120 min.

T1 sequence (P53341 whole entry): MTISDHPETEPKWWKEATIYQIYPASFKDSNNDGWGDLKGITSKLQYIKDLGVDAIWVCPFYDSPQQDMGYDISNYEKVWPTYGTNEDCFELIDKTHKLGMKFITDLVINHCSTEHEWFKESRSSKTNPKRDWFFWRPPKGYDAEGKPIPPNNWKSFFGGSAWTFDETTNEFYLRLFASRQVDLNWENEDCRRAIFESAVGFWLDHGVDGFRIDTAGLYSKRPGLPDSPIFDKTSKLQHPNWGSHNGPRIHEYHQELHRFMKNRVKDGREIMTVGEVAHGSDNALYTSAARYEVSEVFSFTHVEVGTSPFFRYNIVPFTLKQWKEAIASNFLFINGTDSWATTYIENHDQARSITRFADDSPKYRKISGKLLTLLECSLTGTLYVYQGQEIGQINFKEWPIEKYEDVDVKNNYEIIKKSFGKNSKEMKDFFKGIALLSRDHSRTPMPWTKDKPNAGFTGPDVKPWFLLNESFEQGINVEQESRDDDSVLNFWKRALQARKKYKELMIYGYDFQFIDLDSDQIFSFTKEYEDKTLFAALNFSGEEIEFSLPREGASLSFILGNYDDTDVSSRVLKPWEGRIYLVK

Regarding `C[C@H]1O[C@H](O[C@H]2[C@H](O)[C@@H](O)[C@@H](O[C@H]3[C@H](O)[C@@H](O)C(O)O[C@@H]3CO)O[C@@H]2CO)[C@H](O)[C@@H](O)[C@@H]1N[C@H]1C=C(CO)[C@@H](O)[C@H](O)[C@H]1O` (some centres unmarked) [Acarbose, acarbose, reference compound], the Type of inhibition entry on α-glucosidase [1] was “Mixed”. Also, the Vmax at α-glucosidase [1] ([I] […] μM) is 5.92±0.06 ×10-1µM/min; on α-glucosidase [1] ([I] 500 μM), 6.18±0.04 ×10-1µM/min; at α-glucosidase [1] ([I] 1000 μM) it was 5.90±0.03 ×10-1µM/min; at α-glucosidase [1] ([I] 2000 μM) it was 2.42±0.06 ×10-1µM/min; on α-glucosidase [1] ([I] […]) it was 5.96±0.06 ×10-1µM/min. Also, the “Ksv (quenching constant)” value at α-glucosidase [2] (T 300.15 K) is listed as 0.01 ±0.01 104 /M; at α-glucosidase [2] (T 305.15 K) it was 0.02 ±0.01 104 /M. Besides, the “n (number of binding sites)” value on α-glucosidase [2] (T 300.15 K) is reported as 1.04; at α-glucosidase [2] (T 305.15 K), 0.98. In addition, the “Kq (bimolecular quenching constant)” value on α-glucosidase [2] (T 300.15 K) is recorded as 0.01 ×10^12 (M·S)-1; on α-glucosidase [2] (T 305.15 K) it was 0.02 ×10^12 (M·S)-1. Further, the “RSQF values, Trp (Δλ = 60 nm) versus Tyr (Δλ = 15 nm)” value on α-glucosidase [3] is “very low”. The “blood glucose area under the curve (AUC), total glycemic exposure” value in the assay with C57BL/6J mice is given as “significantly reduced”.
